Data from US12643855B2, “Fluorogenic dimer compound, useful as a probe for detection of endogenous receptors” (UNIVERSITE DE STRASBOURG, priority 2020, dated 2026).
Where two headings read alike, the source gives them in different places.

How the values were obtained:
[1] = in EtOH; cited from earlier work
[2] = in EtOH; cited from earlier work; remark: listed apart in the source
[3] = test system: GFP-fused oxytocin receptor (GFP-OTR); assay: Fluorescence confocal microscopy on living HEK293 cells expressing GFP-OTR, no-wash conditions; assay type: cell-based; details: 500 nM
Protocol: FIG. 1: Confocal microscopy studies of dCy5.5-PEG-CBT and mCy5.5-PEG-CBT on living HEK 293 cells expressing OTR-GFP fusion under no-wash conditions. Cells were incubated with the ligands for 5 min at room temperature prior to the imaging.
HEK293 cells expressing the GFP-fused oxytocin receptor (GFP-OTR) and wild-type HEK293 cells were cultured in Eagle's minimal essential medium (MEM, Invitrogen 21090) with 10% of heat-inactivated fetal bovine serum, 100 U/mL of penicillin, 100 µg/mL of streptomycin, 2 mM of glutamine and 50 µg/mL of hygromycin B for GFP-OTR cells at 37° C. in a humidified 5% CO2 atmosphere. 70-80% cell confluence was maintained by removal of a portion of the culture and replacement with fresh medium twice a week. For confocal microscopy studies, cells were seeded onto 35 mm ibiTreat Ibidi Polymer Coverslip at a density of 100 000 cells/Ibidi 24 h before microscopy.
[…] For competition experiments, a mixture of 10 nM of fluorescent ligands and 2 μM of carbetocin was used. Fluorescence confocal microscopy experiments were performed on a Leica TCS SPE-II microscope with a HXC PL APO 63×/1.40 OIL CS objective. GFP excitation was performed with a 488 nm 10 mW laser, the excitation of Cy5.5 was performed with a 635 nm 18 mW laser. Image treatment was proceeded using ImageJ (Wayne Rasband, National Institute of Mental Health, Bethesda).

[4] = target: T1, endogenous OTR (oxytocin receptor) in mammary glands (Mus musculus, UniProt P97926); assay: In vivo fluorescence biodistribution study (small animal fluorescence imaging); details: lactating mice, 7.5 nmol i.v., imaged 30 min after
T1 construct: target-specific imaging of the naturally expressed receptor in living mice; from tissue; host or cells: living lactating Swiss mice (mammary glands), in vivo imaging
T1 sequence (P97926 1-388): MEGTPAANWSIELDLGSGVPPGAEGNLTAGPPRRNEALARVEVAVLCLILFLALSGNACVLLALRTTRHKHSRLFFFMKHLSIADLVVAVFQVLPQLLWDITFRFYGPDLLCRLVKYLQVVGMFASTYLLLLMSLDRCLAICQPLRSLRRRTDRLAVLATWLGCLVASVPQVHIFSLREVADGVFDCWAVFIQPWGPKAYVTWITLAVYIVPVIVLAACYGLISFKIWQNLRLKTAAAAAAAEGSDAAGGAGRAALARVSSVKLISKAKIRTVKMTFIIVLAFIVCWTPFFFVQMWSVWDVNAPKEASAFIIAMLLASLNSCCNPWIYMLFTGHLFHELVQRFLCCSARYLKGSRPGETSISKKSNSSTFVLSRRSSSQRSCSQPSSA

[5] = in MeOH; cited from earlier work

In the case of Rhodamine 800, the “Fluorescence quantum yield (QY) of the reference” value (“Fluorescence quantum yield (QY)” below) [1] is given as 25% and the “Fluorescence quantum yield (QY)” value [2] is given as 25%.

With `CC[C@H](C)[C@@H]1NC(=O)[C@H](Cc2ccc(OC)cc2)NC(=O)CCCSC[C@@H](C(=O)N2CCC[C@H]2C(=O)N[C@@H](CCCCn2cc(CNC(=O)CCNC(=O)CCC(=O)NCCOCCOCCNC(=O)CCC(=O)NCCOCCOCCNC(=O)CCC(=O)NCCOCCOCCNC(=O)CCCCCN3/C(=C/C=C/C=C/C4=[N+](CCOCCOCCOCCOCCOCCOCCOCCOC)c5ccc6ccccc6c5C4(C)C)C(C)(C)c4c3ccc3ccccc43)nn2)C(=O)NCC(N)=O)NC(=O)[C@H](CC(N)=O)NC(=O)[C@H](CCC(N)=O)NC1=O.O=C([O-])C(F)(F)F` [mCy5.5-PEG-CBT] the “Image background from unbound probe” value [3] was “strong background” and the Off-target fluorescence signal [4] was “strong off-target fluorescence”.

In the case of `CCCCCCCCCCCCCCCCCCN1/C(=C/C=C/C=C/C2=[N+](CCCCCCCCCCCCCCCCCC)c3ccccc3C2(C)C)C(C)(C)c2ccccc21.[O-][Cl+3]([O-])([O-])[O-]` [DID], the “Fluorescence quantum yield (QY)” value [5] is given as 33%.
